Patent US20090099141A1, “COMPOSITIONS AND METHODS FOR TREATING VITAMIN D DEFICIENCIES” (priority 2005, published 2009)

Experiment: Serum level of 25(OH)D in an adult human after oral 250 μg (10,000 IU) vitamin D3 tablets (Nichols method)
Assay type: in vivo
Method: During the winter months an adult living in a northern region of the United States receiving no vitamin D supplements other than through their normal diet is found to have a serum level of 25(OH)D of about 25 nmole/L. The person is provided with four (4) blister packs, each pack containing four (4) 250 μg (10,000 IU) of vitamin D3. The blister pack has instructions to take one tablet by mouth once a week. The person is instructed to take all of the tablets according to instructions provided on the pack. Blood samples are drawn each week just before a tablet is taken and the serum levels of 25(OH)D are determined. Serum levels of 25(OH)D can be determined by the Nichols method (catalog no. 40-2135; Nichols Institute Diagnostics). Within approximately two months, serum levels increase by about 15 to about 20 nmole/L to a level of at least about 40 nmole/L.
During the winter months an adult living in a northern region of the United States receiving no vitamin D supplements other than through their normal diet is found to have a serum level of 25(OH)D of about 18 nmole/L. The person is provided with four (4) blister packs, each pack having one tablet for each day of the month [about thirty (30) tablets], and each tablet containing 250 μg (10,000 IU) of vitamin D3. The blister pack has instructions to take one tablet by mouth once a day, noting on the pack, where indicated, the date and time each tablet is taken. The person is instructed to take all of the tablets according to instructions provided on the pack. Blood samples are drawn after one (1) week and each week thereafter at approximately the same time and the serum levels of 25(OH)D are determined. Serum levels of 25(OH)D can be determined by the Nichols method (catalog no. 40-2135; Nichols Institute Diagnostics). Within approximately two months, serum levels increase by at least 100 nmole/L to a level of at least about 120 nmole/L and, within about 4 months, increase by at least about 180 nmole/L to a level of at least about 200 nmole/L.
During the winter months an adult living in a northern region of the United States receiving no vitamin D supplements other than through their normal diet is found to have a serum level of 25(OH)D of about 35 nmole/L. The person is provided with four (4) blister packs, each pack containing fifteen (15) 250 μg (10,000 IU) of vitamin D3. The blister pack has instructions to take one tablet by mouth once every other day, noting on the pack, where indicated, the date and time each tablet is taken. The person is instructed to take all of the tablets according to instructions provided on the pack. Blood samples are drawn each week at approximately the same time and the serum levels of 25(OH)D are determined. Serum levels of 25(OH)D can be determined by the Nichols method (catalog no. 40-2135; Nichols Institute Diagnostics). Within approximately one-month serum levels increase by at least about 60-70 nmole/L to a level of at least about 100 nmole/L and within about 4 months […] a level of about 120 nmole/L.

[1] = adult female, baseline about 18 nmole/L, 250 μg (10,000 IU) tablet by mouth once a day, within about 4 months
[2] = adult female, baseline about 18 nmole/L, 250 μg (10,000 IU) tablet by mouth once a day, within approximately two months
[3] = adult male, baseline about 35 nmole/L, 250 μg (10,000 IU) tablet by mouth once every other day, within approximately one month

## C=C1CC[C@H](O)C/C1=C/C=C1\CCC[C@]2(C)[C@@H]([C@H](C)CCCC(C)C)CC[C@@H]12 [vitamin D3]
[1]
  increase in serum level of 25(OH)D: at least 180 nmole/L
  serum level of 25(OH)D: at least 200 nmole/L
[2]
  increase in serum level of 25(OH)D: at least 100 nmole/L
  serum level of 25(OH)D: at least 120 nmole/L
Adult male, baseline about 25 nmole/L, 250 μg (10,000 IU) tablet by mouth once a week, within approximately two months
  serum level of 25(OH)D: at least 40 nmole/L
Adult male, baseline about 35 nmole/L, 250 μg (10,000 IU) tablet by mouth once every other day, within about 4 months
  serum level of 25(OH)D: about 120 nmole/L
[3]
  increase in serum level of 25(OH)D: 60 to 70 nmol/L
  serum level of 25(OH)D: at least 100 nmole/L
